In ChEMBL document CHEMBL5465560, “Selectivity Literature for EUbOPEN Chemogenomic Library” (2024):

Key:
[1] = biological target: T1, Mitogen-activated protein kinase kinase kinase 15 (Homo sapiens) (UniProt Q6ZN16); assay: Selectivity interaction (Kinase panel (KiNativ target engagement assay in Jurkat cells)) EUB0001635a MAP3K15; format: cell-based; conditions: at 1 µM
T1 sequence (whole entry): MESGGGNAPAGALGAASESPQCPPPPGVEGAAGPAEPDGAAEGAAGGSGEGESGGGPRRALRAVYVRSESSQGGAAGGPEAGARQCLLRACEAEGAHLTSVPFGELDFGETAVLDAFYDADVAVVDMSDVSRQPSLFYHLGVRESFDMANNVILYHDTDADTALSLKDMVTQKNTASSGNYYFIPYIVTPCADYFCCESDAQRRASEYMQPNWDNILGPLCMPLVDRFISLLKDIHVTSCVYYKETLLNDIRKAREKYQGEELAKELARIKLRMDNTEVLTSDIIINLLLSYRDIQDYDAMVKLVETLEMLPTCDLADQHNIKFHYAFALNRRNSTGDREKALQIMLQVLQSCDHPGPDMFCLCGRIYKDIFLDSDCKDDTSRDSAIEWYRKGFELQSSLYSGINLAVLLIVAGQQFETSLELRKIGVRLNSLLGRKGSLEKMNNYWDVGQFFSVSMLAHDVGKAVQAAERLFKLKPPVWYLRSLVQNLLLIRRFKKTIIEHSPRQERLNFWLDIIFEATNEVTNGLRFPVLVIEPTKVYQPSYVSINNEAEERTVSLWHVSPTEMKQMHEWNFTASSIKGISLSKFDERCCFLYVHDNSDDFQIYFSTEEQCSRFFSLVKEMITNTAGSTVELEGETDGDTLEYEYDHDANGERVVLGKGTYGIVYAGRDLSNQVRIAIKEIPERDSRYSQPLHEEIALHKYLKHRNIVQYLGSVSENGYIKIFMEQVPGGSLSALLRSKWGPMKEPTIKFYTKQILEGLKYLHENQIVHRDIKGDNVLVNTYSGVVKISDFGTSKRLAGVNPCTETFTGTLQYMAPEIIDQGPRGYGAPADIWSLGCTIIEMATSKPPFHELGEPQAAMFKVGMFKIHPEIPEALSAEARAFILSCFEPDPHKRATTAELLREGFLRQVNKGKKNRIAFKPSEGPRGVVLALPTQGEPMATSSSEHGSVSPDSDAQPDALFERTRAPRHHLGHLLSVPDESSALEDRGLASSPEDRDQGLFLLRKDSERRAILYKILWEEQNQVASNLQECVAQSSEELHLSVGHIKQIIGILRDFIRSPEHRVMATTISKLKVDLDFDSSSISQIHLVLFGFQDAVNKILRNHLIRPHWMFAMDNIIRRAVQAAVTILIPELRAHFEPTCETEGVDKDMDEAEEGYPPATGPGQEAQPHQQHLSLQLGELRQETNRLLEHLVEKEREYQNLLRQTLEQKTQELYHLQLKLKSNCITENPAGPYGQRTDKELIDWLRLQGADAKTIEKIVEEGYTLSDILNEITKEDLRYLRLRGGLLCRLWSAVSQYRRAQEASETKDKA

[2] = biological target: T2, Serine/threonine-protein kinase D1 (Homo sapiens) (UniProt Q15139); assay: Selectivity interaction (Kinase panel (Z-LYTE Assay)) EUB0001632a PRKD1; conditions: at 10 µM
T2 sequence (whole entry): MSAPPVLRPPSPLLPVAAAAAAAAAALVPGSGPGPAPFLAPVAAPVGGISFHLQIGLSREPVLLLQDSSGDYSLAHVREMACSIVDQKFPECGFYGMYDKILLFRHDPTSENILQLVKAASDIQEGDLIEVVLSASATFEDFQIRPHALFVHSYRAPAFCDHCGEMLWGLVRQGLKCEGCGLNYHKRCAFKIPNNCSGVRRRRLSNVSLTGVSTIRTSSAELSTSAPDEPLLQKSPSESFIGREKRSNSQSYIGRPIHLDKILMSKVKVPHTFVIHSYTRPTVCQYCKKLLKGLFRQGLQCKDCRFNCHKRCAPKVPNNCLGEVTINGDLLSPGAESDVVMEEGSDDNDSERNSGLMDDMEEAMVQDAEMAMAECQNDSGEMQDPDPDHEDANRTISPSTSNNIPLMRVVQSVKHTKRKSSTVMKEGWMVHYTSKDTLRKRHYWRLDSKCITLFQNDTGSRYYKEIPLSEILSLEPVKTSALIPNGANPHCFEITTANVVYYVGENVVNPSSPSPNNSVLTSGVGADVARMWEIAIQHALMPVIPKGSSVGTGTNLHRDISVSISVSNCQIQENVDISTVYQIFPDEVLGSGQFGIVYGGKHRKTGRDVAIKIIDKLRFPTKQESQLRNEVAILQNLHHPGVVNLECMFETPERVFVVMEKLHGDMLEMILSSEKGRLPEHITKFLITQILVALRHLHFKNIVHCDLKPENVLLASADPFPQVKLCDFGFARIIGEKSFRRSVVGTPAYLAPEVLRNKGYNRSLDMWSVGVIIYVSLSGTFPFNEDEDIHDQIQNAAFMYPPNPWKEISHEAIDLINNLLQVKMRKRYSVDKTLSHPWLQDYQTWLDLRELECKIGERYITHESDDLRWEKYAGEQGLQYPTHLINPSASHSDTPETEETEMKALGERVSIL

[3] = biological target: T3, Serine/threonine-protein kinase BRSK2 (Homo sapiens) (UniProt Q8IWQ3); assay: Selectivity interaction (Upstate Kinase Profiler service (Millipore)) EUB0000056c BRSK2; conditions: at 1 µM
T3 sequence (whole entry): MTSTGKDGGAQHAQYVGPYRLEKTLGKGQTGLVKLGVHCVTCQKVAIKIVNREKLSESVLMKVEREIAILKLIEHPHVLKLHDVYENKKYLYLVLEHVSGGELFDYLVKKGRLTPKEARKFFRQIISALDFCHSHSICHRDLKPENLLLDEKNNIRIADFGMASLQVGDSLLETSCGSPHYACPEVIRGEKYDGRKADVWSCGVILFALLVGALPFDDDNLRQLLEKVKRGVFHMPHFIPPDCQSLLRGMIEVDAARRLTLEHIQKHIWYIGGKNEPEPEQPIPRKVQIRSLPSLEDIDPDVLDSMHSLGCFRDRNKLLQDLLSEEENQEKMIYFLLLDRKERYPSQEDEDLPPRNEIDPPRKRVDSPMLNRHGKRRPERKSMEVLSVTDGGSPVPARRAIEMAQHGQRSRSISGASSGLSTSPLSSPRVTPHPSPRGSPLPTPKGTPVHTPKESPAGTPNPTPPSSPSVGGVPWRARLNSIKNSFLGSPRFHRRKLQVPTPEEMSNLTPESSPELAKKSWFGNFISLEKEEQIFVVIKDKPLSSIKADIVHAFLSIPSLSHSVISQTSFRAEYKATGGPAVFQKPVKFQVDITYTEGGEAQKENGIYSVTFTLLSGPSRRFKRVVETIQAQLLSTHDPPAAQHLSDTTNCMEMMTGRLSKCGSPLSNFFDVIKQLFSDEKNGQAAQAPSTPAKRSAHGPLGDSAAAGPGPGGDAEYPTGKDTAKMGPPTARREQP

[4] = biological target: Calcium/calmodulin-dependent protein kinase kinase 1 (Homo sapiens) (UniProt Q8N5S9); conditions: at 10 µM
Sequence of Calcium/calmodulin-dependent protein kinase kinase 1 (Homo sapiens) (Q8N5S9 whole entry, looked up): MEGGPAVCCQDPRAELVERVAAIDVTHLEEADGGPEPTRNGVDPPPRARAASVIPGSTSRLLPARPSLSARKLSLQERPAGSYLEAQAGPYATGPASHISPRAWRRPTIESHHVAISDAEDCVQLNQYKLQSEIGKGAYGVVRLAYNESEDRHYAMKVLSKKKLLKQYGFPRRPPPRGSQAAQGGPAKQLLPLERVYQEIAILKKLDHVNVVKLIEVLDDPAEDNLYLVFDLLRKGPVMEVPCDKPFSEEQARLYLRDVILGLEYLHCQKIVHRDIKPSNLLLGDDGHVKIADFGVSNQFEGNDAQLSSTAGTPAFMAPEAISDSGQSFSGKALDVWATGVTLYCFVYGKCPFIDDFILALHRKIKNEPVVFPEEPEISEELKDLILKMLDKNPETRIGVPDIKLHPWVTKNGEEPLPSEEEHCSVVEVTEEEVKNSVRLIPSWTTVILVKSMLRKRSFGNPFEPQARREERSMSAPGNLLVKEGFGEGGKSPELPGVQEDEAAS

C=CC(=O)Nc1ccc(C(=O)Nc2[nH]nc3c2CN(C(=O)N[C@H](CN(C)C)c2ccccc2)C3(C)C)cc1
% of engagement [1]: 4.9%

Cn1cc(-n2cnc3c(NCc4nc5cc(Cl)c(Cl)cc5[nH]4)nc(N4CCOCC4)nc32)cn1
% of control [2]: 3.91%

Cc1ccc(-c2ccc3c(ccc4sc5c(c43)NC[C@@H](C)NC5=O)n2)cn1
% of inhibition [3]: 93%

CCN(CC)CCCCNc1ncc2cc(-c3cc(OC)cc(OC)c3)c(NC(=O)NC(C)(C)C)nc2n1
% of control [4]: 100%
